# Reference: ChEMBL document CHEMBL1201862, “PubChem BioAssay data set” (2004)
# Calls of active or inactive are those of the source.
# Legend:
# [1] = molecular target: T1, Sentrin-specific protease 7 (Homo sapiens, UniProt Q9BQF6); type: functional;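 also: Luminescence-based dose-response confirmation of ultra-high-throughput screening hits, measuring inhibition of SENP7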
# T1 sequence (Q9BQF6 whole entry): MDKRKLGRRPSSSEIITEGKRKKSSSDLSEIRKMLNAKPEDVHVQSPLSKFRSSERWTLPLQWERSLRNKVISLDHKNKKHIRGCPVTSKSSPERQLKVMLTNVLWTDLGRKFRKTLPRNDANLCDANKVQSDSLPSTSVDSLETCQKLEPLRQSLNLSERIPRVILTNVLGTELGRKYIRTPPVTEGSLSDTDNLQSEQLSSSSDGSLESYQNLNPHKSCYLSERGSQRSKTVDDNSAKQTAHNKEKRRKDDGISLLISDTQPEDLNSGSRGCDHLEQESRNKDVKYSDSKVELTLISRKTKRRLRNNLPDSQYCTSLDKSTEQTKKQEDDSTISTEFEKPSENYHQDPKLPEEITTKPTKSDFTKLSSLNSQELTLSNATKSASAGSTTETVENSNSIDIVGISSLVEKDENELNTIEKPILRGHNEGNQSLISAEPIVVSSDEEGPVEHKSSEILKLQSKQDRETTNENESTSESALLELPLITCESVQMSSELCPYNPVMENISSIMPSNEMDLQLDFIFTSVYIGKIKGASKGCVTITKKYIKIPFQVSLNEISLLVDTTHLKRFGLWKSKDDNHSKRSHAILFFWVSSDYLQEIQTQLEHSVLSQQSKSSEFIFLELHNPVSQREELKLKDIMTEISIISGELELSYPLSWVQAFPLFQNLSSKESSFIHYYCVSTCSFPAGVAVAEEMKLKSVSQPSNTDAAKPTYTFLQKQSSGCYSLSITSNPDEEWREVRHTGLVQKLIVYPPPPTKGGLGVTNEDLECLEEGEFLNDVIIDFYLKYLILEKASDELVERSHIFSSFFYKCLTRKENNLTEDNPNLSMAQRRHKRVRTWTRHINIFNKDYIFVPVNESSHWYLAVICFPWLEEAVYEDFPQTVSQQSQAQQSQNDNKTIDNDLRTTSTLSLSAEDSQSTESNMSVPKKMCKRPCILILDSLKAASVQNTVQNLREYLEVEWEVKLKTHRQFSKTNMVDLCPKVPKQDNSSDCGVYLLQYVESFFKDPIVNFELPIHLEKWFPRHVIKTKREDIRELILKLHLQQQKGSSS
# [2] = molecular target: T2, Polyadenylate-binding protein 1 (Homo sapiens, UniProt P11940); assay: PABP1 MLLE–PAM2 interaction inhibitors, dose response, miRNA deadenylation inhibitor project, biochemical, fluorescence polarization, Cy5-PAM2 peptide, secondary (AID 602260); type: functional; conditions: read-out: IC50_Mean
# [3] = molecular target: T3, Sentrin-specific protease 8 (Homo sapiens, UniProt Q96LD8); assay: SENP8 protease inhibitors, SAR follow-up, biochemical, luminescence (AID 504501); type: functional
# T3 sequence (Q96LD8 whole entry): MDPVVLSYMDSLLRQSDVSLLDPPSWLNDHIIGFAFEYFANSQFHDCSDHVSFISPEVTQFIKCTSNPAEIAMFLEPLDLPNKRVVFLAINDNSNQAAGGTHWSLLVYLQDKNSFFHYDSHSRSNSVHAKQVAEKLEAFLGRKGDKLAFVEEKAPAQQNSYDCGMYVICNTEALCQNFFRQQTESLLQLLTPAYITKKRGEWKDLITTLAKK
# [4] = molecular target: T4, Sentrin-specific protease 6 (Homo sapiens, UniProt Q9GZR1); assay: SAR Analysis of small molecule inhibitors of Sentrin-specific protease 6 (SENP6) using a Luminescent assay. [Related pubchem assays (depositor defined):AID2582, AID2599]; type: functional
# T4 sequence (Q9GZR1 whole entry): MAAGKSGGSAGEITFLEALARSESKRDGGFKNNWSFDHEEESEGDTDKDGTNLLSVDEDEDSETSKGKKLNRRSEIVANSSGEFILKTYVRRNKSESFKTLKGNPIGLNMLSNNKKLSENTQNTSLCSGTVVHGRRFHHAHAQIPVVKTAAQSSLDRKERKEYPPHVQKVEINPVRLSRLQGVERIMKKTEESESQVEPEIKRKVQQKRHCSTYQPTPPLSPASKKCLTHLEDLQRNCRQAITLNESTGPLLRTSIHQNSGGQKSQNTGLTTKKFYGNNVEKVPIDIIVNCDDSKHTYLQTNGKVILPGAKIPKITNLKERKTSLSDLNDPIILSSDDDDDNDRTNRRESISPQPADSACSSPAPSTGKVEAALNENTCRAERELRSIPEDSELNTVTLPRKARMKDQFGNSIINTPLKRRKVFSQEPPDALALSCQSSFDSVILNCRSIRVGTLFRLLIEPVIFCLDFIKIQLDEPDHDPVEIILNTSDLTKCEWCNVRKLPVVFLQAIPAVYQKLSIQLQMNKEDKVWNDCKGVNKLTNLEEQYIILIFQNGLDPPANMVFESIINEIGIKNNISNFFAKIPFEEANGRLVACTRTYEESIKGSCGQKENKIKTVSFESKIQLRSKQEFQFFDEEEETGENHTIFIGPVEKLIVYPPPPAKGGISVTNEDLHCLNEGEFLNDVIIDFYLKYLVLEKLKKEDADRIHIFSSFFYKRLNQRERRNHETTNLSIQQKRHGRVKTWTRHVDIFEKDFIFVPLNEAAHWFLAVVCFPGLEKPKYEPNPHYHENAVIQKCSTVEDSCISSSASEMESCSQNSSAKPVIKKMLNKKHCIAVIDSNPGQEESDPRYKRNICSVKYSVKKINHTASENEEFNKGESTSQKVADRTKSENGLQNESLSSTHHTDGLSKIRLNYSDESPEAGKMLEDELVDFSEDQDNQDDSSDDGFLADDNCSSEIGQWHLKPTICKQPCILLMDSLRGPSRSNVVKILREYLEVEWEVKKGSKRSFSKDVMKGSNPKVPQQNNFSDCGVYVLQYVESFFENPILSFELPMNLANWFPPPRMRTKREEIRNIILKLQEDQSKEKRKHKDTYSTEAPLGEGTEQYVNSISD
# [5] = molecular target: T4, Sentrin-specific protease 6; type: functional
# Caspase-3 [6] = molecular target: T5, Caspase-3 (Homo sapiens, UniProt P42574); assay: SAR Analysis of small molecule inhibitors of Sentrin-specific proteases (SENPs) using a Caspase-3 Selectivity assay. [Related pubchem assays (depositor defined):AID2540, AID2599, AID434973, AID489001]; type: functional
# T5 sequence (P42574 whole entry): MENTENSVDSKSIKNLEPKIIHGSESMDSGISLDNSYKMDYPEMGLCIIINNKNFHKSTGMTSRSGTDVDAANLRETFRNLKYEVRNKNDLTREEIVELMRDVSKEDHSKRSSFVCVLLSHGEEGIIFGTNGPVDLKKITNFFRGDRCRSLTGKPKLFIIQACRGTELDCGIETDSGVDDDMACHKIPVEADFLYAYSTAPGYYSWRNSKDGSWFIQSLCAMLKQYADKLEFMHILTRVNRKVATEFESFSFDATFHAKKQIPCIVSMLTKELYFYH
# Caspase-3 [7] = molecular target: T5, Caspase-3; type: functional
# [8] = molecular target: T1, Sentrin-specific protease 7; assay: SENP7 protease inhibitors, SAR follow-up, biochemical, luminescence (AID 504497); type: functional
# [9] = molecular target: Dual specificity tyrosine-phosphorylation-regulated kinase 1A (Rattus norvegicus, UniProt Q63470); type: biochemical, Homo sapiens
# [10] = molecular target: T3, Sentrin-specific protease 8; type: functional
# [11] = molecular target: T2, Polyadenylate-binding protein 1; assay: PABP1 MLLE–PAM2 binding inhibitor potency, dose response, biochemical, fluorescence polarization, FITC-PAM2 peptide (AID 602259); type: functional; conditions: read-out: IC50_Mean
# [12] = molecular target: T6, Mannose-6-phosphate isomerase (Homo sapiens, UniProt P34949); assay: human PMI inhibitors, high substrate, primary screen, biochemical, fluorescence intensity, high mannose 6-phosphate (AID 1220)
# T6 sequence (P34949 whole entry): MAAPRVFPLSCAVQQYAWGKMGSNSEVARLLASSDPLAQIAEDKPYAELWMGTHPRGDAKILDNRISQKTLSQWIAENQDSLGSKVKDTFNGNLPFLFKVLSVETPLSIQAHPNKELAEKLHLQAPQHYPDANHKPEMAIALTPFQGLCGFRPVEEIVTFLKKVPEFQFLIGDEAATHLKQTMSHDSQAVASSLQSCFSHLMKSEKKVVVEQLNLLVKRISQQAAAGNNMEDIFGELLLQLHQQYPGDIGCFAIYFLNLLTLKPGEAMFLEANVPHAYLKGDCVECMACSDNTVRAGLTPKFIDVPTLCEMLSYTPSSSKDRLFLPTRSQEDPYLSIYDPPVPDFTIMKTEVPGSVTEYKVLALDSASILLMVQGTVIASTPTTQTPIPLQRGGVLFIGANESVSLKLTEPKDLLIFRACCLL
# Genome polyprotein = Genome polyprotein (dengue virus type 2, UniProt P29990); assay: Dengue-2 NS5 methyltransferase inhibitors, primary screen, biochemical, confirmation dose response (AID 588689); type: functional
# [13] = activation of PKA-R1A holoenzyme dissociation, dose response, counter-screen for PKA-R2B activator project, biochemical, Cy5-IP20 fluorescence polarization, 1536-well, triplicate (AID 504896)
# [14] = Fluorescence polarization-based biochemical high throughput dose response assay for activators of the Protein Kinase A-R2B (PKA-R2B) complex. [Related pubchem assays (depositor defined):AID504700, AID504704, AID504796, AID504797]
# Streptococcus = assay: Group A Streptococcus viability loss, dose response, counter-screen for streptokinase expression inhibitor project, luminescence, BacTiterGlo (AID 1915); type: functional, organism-based;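 also: potency for reduction of bacterial viability or growth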
# [15] = test system: Streptococcus sp. 'group A'; assay: growth inhibition of control SK(-) GAS strain, dose response, counter-screen for streptokinase expression inhibitor project, luminescence, kanamycin, BacTiterGlo, confirmation (AID 1900); type: functional, organism-based
# Bcl-2-like protein 10 = molecular target: T7, Bcl-2-like protein 10 (Homo sapiens, UniProt Q9HD36); assay: Isothermal titration calorimetry (ITC) with Bcl-B and compounds active in primary screen. [Related pubchem assays (depositor defined):AID1693]; type: functional
# T7 sequence (Q9HD36 whole entry): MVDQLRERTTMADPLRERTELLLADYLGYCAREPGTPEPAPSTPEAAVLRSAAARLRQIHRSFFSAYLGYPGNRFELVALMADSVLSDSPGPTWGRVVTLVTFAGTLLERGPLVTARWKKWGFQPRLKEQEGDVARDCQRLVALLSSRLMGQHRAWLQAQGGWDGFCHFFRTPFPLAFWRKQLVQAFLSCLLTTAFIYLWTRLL
# Streptokinase A = molecular target: T8, Streptokinase A (Streptococcus pyogenes serotype M1, UniProt P10520); assay: S. pyogenes streptokinase expression inhibitors, potency, dose response, plasminogen activation absorbance, OD405 (AID 1914); type: functional, Streptococcus pyogenes M1 GAS;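 also: secreted streptokinase activity via plasminogen activation per viability signal from cell pellet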
# T8 sequence (P10520 whole entry): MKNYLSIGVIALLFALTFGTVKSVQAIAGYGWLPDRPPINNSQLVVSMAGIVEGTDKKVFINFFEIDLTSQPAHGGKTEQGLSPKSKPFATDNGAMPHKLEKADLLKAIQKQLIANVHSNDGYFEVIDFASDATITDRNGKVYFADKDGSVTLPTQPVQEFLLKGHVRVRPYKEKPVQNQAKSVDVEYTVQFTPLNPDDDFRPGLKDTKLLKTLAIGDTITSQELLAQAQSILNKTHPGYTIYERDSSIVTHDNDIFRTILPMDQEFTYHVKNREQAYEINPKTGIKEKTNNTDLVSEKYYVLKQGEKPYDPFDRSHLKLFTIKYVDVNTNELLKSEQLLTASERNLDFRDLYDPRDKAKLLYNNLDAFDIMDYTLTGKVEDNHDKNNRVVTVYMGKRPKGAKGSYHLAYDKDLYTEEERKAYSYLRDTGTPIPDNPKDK
# [16] = molecular target: Dual specificity protein kinase CLK1 (Homo sapiens, UniProt P49759); assay: CLK1 kinase inhibitors, off-target check, dose response, selectivity assay for Dyrk1A inhibitor project, biochemical, cherry-picked samples (AID 588811)
# Dual specificity protein kinase CLK1, sequence (P49759 whole entry): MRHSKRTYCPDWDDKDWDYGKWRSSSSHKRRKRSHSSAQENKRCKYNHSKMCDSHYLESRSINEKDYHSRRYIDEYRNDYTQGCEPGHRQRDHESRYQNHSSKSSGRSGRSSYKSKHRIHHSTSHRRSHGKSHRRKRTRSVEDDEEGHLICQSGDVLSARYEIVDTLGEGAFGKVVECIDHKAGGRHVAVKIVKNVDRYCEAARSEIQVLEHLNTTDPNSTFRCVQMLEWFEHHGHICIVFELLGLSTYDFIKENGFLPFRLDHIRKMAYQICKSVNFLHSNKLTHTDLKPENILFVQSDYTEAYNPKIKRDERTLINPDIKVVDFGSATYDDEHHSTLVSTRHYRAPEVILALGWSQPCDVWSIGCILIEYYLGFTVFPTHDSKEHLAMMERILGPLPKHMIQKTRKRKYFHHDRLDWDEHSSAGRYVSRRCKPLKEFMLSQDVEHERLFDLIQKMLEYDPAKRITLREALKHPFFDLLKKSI
# T2 sequence (P11940 whole entry): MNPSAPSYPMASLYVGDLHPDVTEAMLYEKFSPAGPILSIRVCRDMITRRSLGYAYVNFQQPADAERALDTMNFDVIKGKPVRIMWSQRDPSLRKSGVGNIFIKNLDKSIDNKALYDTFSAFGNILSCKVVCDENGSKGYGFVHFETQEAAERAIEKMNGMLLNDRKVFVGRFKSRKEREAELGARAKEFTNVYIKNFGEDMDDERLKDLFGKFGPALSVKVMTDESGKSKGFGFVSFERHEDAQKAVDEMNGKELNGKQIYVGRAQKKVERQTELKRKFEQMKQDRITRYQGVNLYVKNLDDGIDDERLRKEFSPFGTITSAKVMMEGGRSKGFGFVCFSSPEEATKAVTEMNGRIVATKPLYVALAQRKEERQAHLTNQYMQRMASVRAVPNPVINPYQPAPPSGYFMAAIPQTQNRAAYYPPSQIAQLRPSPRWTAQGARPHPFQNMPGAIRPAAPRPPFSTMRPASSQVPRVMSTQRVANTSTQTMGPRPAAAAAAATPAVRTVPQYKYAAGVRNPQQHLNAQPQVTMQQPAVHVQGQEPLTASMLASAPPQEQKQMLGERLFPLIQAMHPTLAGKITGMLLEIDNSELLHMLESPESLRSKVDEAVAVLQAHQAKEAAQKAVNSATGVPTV
# Genome polyprotein, sequence (P29990 2492-3391 limits assumed): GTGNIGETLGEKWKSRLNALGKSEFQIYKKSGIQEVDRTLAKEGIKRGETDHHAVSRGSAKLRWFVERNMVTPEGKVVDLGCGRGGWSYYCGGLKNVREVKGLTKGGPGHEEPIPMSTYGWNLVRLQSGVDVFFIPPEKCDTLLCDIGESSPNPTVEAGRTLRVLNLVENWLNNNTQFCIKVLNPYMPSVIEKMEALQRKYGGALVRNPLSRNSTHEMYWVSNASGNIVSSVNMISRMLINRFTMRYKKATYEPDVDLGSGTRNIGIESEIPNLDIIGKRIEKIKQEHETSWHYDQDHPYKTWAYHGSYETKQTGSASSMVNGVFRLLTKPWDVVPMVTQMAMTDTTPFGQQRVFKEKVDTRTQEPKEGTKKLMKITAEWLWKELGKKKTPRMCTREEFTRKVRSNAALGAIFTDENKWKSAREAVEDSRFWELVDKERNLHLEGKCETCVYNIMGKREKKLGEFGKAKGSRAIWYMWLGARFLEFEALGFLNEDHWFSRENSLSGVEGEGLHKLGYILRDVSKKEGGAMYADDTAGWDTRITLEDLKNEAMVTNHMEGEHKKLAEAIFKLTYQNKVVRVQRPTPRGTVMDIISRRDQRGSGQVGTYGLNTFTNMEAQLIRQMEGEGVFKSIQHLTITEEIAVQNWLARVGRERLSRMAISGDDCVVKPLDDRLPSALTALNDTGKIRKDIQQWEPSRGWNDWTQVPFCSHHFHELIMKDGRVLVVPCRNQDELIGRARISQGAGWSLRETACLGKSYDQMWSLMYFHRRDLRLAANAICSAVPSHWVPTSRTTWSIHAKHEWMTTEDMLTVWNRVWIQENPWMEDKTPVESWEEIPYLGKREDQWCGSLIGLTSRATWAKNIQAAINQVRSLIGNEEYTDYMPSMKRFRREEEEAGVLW
smiles,measurement,setting,value
COc1ccc2c(C#N)c3ccccn3c2c1,IC50,[1],> 100 µM (inactive)
same,IC50,[2],> 66 µM (inactive)
same,IC50,[3],> 99 µM (inactive)
same,IC50,[4],> 99 µM (inactive)
same,IC50,[5],16.6 µM (active)
same,IC50,Caspase-3 [6],65.4 µM (active)
same,IC50,Caspase-3 [7],54.8 µM (active)
same,IC50,[8],> 99 µM (inactive)
same,AC50,[9],0.242 µM (active)
same,IC50,[10],> 100 µM (inactive)
same,IC50,[11],21.2 µM (inactive)
same,IC50,[12],> 50 µM (not active)
CN(C)c1ccc(N=Nc2ccc(S(=O)(=O)O)cc2)c2ccccc12,IC50,Genome polyprotein,46.2 µM (active)
same,EC50,[13],> 114 µM (inactive)
same,EC50,[14],69 µM (inactive)
O=c1c2c(n3nnnc3n1Cc1ccccc1)-c1ccccc1CC21CCCC1,EC50,Streptococcus,> 150 µM (not active)
same,EC50,[15],26.3 µM (active)
same,IC50,Bcl-2-like protein 10,0.2 µM (active)
same,EC50,Streptokinase A,6.74 µM (active)
CSCC(=O)Nc1nc(-c2ccc3c(c2)OCCO3)cs1,AC50,[16],8.63 µM (active)
